{
  "source": "patent US11920185B2",
  "about": "“Method of inactivating microbes by citraconic anhydride” (Roche Molecular Systems, Inc., priority 2015, dated 2024)",
  "test_system": "lambda bacteriophage GT11",
  "experiment": "Titering (plaque assay) of citraconic anhydride-treated lambda bacteriophage on E. coli Y1088",
  "format": "cell-based",
  "details": "for Titer, Tricine, After 1 month / Titer, Tricine, Day 1: stored in 10 mM Tricine pH 8.3; for Titer, Tris, After 1 month / Titer, Tris, Day 1: stored in 10 mM Tris pH8.3; for Titer pfu/ml (at 1 month): stored one month at 4° C.",
  "protocol": "In order to analyze lambda bacteriophage GT11 inactivation using citraconic anhydride (also referred to as “Cit” or “cit”), a titration was performed.\n10 μl of working solution of citraconic anhydride in DMF was added to 1 ml lambda bacteriophage in SM buffer, which is 0.1 M NaCl, 10 mM MgSO^4, 50 mM Tris pH 7.5, 0.01% gelatin (Sambrook and Russell, supra, page A2.8) where the phage was provided at 1×10^7 pfu/ml). The reaction was performed at room temperature for 1 hour and then stored at 4° C. for 7 days to one month. The phage solutions were titered to determine the effect of the citraconic anhydride modification on the phage.\nTitering of bacteriophage was performed as follows: The host bacterium, E. coli Y1088, was inoculated into 15 mls luria broth supplemented with 10 mM MgSO4 and 0.2% Maltose (w/v) using a 0.1% inoculum and incubated at 37° C. to an OD<=1. The cells were concentrated by centrifugation (10 minutes at 500×g) and the cell pellet resuspended in ½ volume of sterile 10 mM MgSO4. The E. coli cells were diluted to 0.5 OD600 with 10 mM MgSO4. The bacteriophage was serially diluted in SM Buffer as follows. Pipet 10 μL phage into the tube labeled 10^−2. Resuspend by vortexing. Using a new tip, pipet 10 μL of the 10^−2 dilution into the tube labeled 10^−4. Resuspend by vortexing. Repeat the 100-fold serial dilutions to the 10^−8 tube. From the 10^−8 tube, perform 10-fold dilutions to the 10^−9 and 10^−10 tubes. Add 100 μL of phage from the 10^−8 s to the 10^−9 tube, vortex, and add 100 μL from the 10^−9 tube to the 10^−10 tube. Vortex the 10^−10 tube. Add 300 μL E. coli to each of 5 sterile 17×100 mm Falcon polypropylene round bottom tubes (#352057) for each sample being titered. Add 100 μL of the diluted […] to the tube (dilutions 10^−4, 10^−6, 10^−8, 10^−9 and 10^−10). Let sit 10 minutes at room temperature. Incubate 10 minutes at 37° C. Meanwhile, label the NZCYM plates with the phage sample and the dilution. To the first tube still in the 37° C. heat block, add 3 mL top agar (from the bottle of top agar in the 50° C. bath), vortex the tube, and quickly pour onto the NZCYM plate. Swirl the plate quickly so the top agar covers the entire plate. Allow the top agar to solidify on the bench. Repeat with each tube. Incubate the plates at 37° C. overnight in an inverted position. The next day, count the plaques and calculate the titer by using the dilution which provides the most countable number of plaques.\nThis experiment tested the stability of citraconic anhydride (Cit)-treated lambda bacteriophage. Phage was inactivated using different Cit concentrations and stored for one month at 4° C.\nBacteriophage targets treated with different concentrations of Cit were stored in different buffers and then evaluated for their inactivation status. Targets were stored in either 10 mM Tris pH8.3 or 10 mM Tricine pH 8.3.",
  "note": "Where two headings read alike, the source gives them in different places.",
  "data": [
    {"smiles": "CC1=CC(=O)OC1=O", "note": "[citraconic anhydride]", "values": [
      {"measurement": "Day 1 - Titer", "value": "6.7 × 10^6 pfu/ml"},
      {"measurement": "Day 8 - Titer", "setting": "1.1 μM final concentration, stored at 4° C.", "value": "3.9 × 10^7 pfu/ml"},
      {"measurement": "Day 1 - Titer", "setting": "11 μM final concentration", "value": "9.0 × 10^6 pfu/ml"},
      {"measurement": "Day 8 - Titer", "setting": "11 μM final concentration, stored at 4° C.", "value": "2.9 × 10^7 pfu/ml"},
      {"measurement": "Day 1 - Titer", "setting": "0.11 mM final concentration", "value": "5.5 × 10^6 pfu/ml"},
      {"measurement": "Day 8 - Titer", "setting": "0.11 mM final concentration, stored at 4° C.", "value": "3.6 × 10^7 pfu/ml"},
      {"measurement": "Day 1 - Titer", "setting": "1.1 mM final concentration", "value": "1.8 × 10^6 pfu/ml"},
      {"measurement": "Day 8 - Titer", "setting": "1.1 mM final concentration, stored at 4° C.", "value": "2.0 × 10^7 pfu/ml"},
      {"measurement": "Titer, Tricine, After 1 month", "setting": "5.5 mM Cit", "value": "3 × 10^3 pfu/ml"},
      {"measurement": "Titer, Tricine, Day 1", "setting": "5.5 mM Cit", "value": "1 × 10^3 pfu/ml"},
      {"measurement": "Titer, Tris, After 1 month", "setting": "5.5 mM Cit", "value": 0, "unit": "pfu/ml"},
      {"measurement": "Titer, Tris, Day 1", "setting": "5.5 mM Cit", "value": "1.5 × 10^3 pfu/ml"},
      {"measurement": "Titer pfu/ml (Day 1)", "setting": "5.5 mM final Cit concentration", "value": "1.5 × 10^6 pfu/ml"},
      {"measurement": "Titer pfu/ml (at 1 month)", "setting": "5.5 mM final Cit concentration", "value": "1.5 × 10^6 pfu/ml"},
      {"measurement": "Titer, Tricine, After 1 month", "setting": "11 mM Cit", "value": 0, "unit": "pfu/ml"},
      {"measurement": "Titer, Tricine, Day 1", "setting": "11 mM Cit", "value": 0, "unit": "pfu/ml"},
      {"measurement": "Titer, Tris, After 1 month", "setting": "11 mM Cit", "value": 0, "unit": "pfu/ml"},
      {"measurement": "Titer, Tris, Day 1", "setting": "11 mM Cit", "value": 0, "unit": "pfu/ml"},
      {"measurement": "Titer pfu/ml (Day 1)", "setting": "11 mM final Cit concentration", "value": 0, "unit": "pfu/ml"},
      {"measurement": "Titer pfu/ml (at 1 month)", "setting": "11 mM final Cit concentration", "value": 0, "unit": "pfu/ml"},
      {"measurement": "Day 1 - Titer", "setting": "11 mM final concentration in reaction with phage, 1 h room temperature, phage 1×10^7 pfu/ml in SM buffer", "value": 0, "unit": "pfu/ml"},
      {"measurement": "Day 8 - Titer", "setting": "11 mM final concentration, stored at 4° C.", "value": 0, "unit": "pfu/ml"},
      {"measurement": "Phage inactivation", "setting": "11 mM, persisted after 7 days", "value": "complete inactivation"},
      {"measurement": "Titer, Tricine, After 1 month", "setting": "22 mM Cit", "value": 0, "unit": "pfu/ml"},
      {"measurement": "Titer, Tricine, Day 1", "setting": "22 mM Cit", "value": 0, "unit": "pfu/ml"},
      {"measurement": "Titer, Tris, After 1 month", "setting": "22 mM Cit", "value": 0, "unit": "pfu/ml"},
      {"measurement": "Titer, Tris, Day 1", "setting": "22 mM Cit", "value": 0, "unit": "pfu/ml"},
      {"measurement": "Titer pfu/ml (Day 1)", "setting": "22 mM final Cit concentration", "value": 0, "unit": "pfu/ml"},
      {"measurement": "Titer pfu/ml (at 1 month)", "setting": "22 mM final Cit concentration", "value": 0, "unit": "pfu/ml"},
      {"measurement": "Persistence of phage inactivation after storage", "setting": "Cit-treatment at >=11 mM, storage in 10 mM Tris pH8.3 or 10 mM Tricine pH 8.3", "value": "provides inactivation for 1 month"},
      {"measurement": "Persistence of phage inactivation", "setting": "greater than or equal to 11 mM, stored at 4° C.", "value": "remain inactivated for 1 month"}
    ]}
  ]
}
